Measured values as given in patent US8501816B2, “Antitussive compositions comprising memantine” (Cerecor, Inc., priority 2010, dated 2013).
“Also recorded” adds a separate entry of the source. Marks after values point to notes of the source that are not given here.

Legend:
[1] = test system: recombinant human histamine receptors; conditions: in vitro; cited from earlier work
[2] = test system: sigma receptor; conditions: cited from earlier work
[3] = test system: native NMDA receptors; conditions: in vitro; cited from earlier work
[4] = cited from earlier work
[5] = Respiratory parameters during cough challenge; format: in vivo, guinea pig; conditions: 10 mg/kg memantine, p=0.012
Method: (§1) Using a similar chamber and nebulizer system, animals were treated first with aerosolized peptidase inhibitors (captopril 0.1 μM and thiorphan 0.1 μM, 5 minutes nebulization) to reduce bradykinin degradation and enhance tussive responses evoked by bradykinin (unpublished observations). Animals were then exposed to increasing concentrations of aerosolized bradykinin (0.1-3 mg/mL), again for 5 minute periods. Coughs are counted during this and the subsequent 5 minutes. Pressure changes within the chamber are used to monitor respiratory rate (Biopac Systems Inc, Goleta, Calif.).

[6] = test system: NMDA receptors; conditions: cited from earlier work
[7] = Pharmacokinetics of memantine with sodium hydroxide, menthol and NH4Cl in male beagle dogs (Example 3); format: in vivo, beagle dog; conditions: MMT 0.4 mg/kg; for Cmax/Dose: Route Oral; for AUC(0-inf) / AUC(0-t) / Cmax / Tmax / half-life: male, beagle, dog, plasma, po, 0.4 mg/kg
[8] = test system: porcine buccal mucosa; experiment: Memantine ex vivo buccal permeability; format: in vitro ADME
[9] = test system: bradykinin induced cough; experiment: Bradykinin induced cough in conscious guinea pigs; format: in vivo, guinea pig
Method: as §1

[10] = test system: histamine neuron activity; conditions: cited from earlier work
[11] = test system: H3-receptor; conditions: hypothalamus, after 5 mg/kg twice daily for 5 days; cited from earlier work
[12] = cited from earlier work; remark: listed apart in the source
[13] = test system: citric acid induced cough; experiment: Citric acid induced cough in conscious guinea pigs; conditions: for ≧15 Cumulative coughs/total number of guinea pigs: 1 hour pre-citric acid challenge; for Cumulative coughs evoked by citric acid, 0.1M Citric Acid / Cumulative coughs evoked by citric acid, 0.3M Citric Acid: MMT 10 mg/kg intraperitoneal
Method: Male Hartley guinea pigs (200-700 g) were studied and all experiments were first approved by the institutional Animal Care and Use Committee.
Animals were placed in a transparent chamber (Buxco Research Systems, Wilmington, N.C.) with a continuous flow of air and exposed to increasing concentrations of citric acid (0.01 M-0.3 M) is delivered by an ultrasonic nebulizer generating aerosol particles of 3-6 μm diameter. Coughs were counted during a 5 minute nebulization period and over the subsequent 5 minutes with the assistance of sound and pressure monitoring from the chamber. Respiratory rate and tidal volume were monitored throughout via a calibrated pressure transducer (Emka Technologies, Falls Church, Va.).
Each of these drugs was administered orally in half-log increments (e.g. 3 mg/kg, 10 mg/kg, 30 mg/kg) in an unpaired experimental design (each animal received only 1 dose of drug). The drugs were administered 60 minutes prior to citric acid challenge, which consisted of 5 minute challenges with aerosols of increasing concentrations of citric acid (0.01-0.3M), with 5 minute intervals in between escalating doses of the tussive stimulus.

[14] = Pharmacokinetics of memantine after oral or buccal dosing in male beagle dogs (Example 2); format: in vivo, beagle dog; set-up: Cmax/Dose: unit not given beside the values
Method: The pharmacokinetics of memantine were evaluated after buccal administration in male beagle dogs. Memantine was formulated in water, 3.3 mg/mL sodium hydroxide in water, or 7.5 mg/mL sodium carbonate in water. All dogs received a 0.4 mg/kg dose of memantine. Plasma levels of memantine were determined by LC-MS/MS. Pharmacokinetic parameters were determined for the memantine plasma data.
For dosing, dogs were anesthetized with an IV injection of ketamine/diazepam, and maintained by isoflurane intubation during the buccal administration. The dosing solution was pipetted into a circular cylinder to concentrate the dosing solution on one area of the mucosa. At just prior to the 15 minute sample time point, the oral cavity was rinsed with 5 mL of water and dried with gauze Immediately after the rinse, the 15 minute sample was collected.

[15] = 3.3 mg/ml sodium hydroxide + 5 mg/ml menthol
[16] = 3.3 mg/ml sodium hydroxide + 5 mg/ml menthol + 20 mg/kg NH4Cl
[17] = 3.3 mg/ml sodium hydroxide + 5 mg/ml menthol + 30 mg/kg NH4Cl
[18] = male, beagle, dog, plasma, 0.4 mg/kg, MMT 0.4 mg/kg Buccal + 7.5 mg/ml Na2CO3
[19] = male, beagle, dog, plasma, 0.4 mg/kg, MMT 0.4 mg/kg Buccal, Control (water)

SMILES: CC12CC3CC(C)(C1)CC(N)(C3)C2 [Memantine, 3,5-dimethyltricyclo[3.3.1.1^3,7]decan-1-amine]
- effect at receptors [1]: no effect
- interaction with receptor [2]: does not interact
- potency of antagonism [3]: micromolar potency
- solubility ([4]; all physiological pHs): > 30 mg/mL
- Biopharmaceutics Classification System (BCS) class ([4]; highly soluble/highly permeable): class I
- Change of breathing frequency induced by bradykinin [5]: small increase in breathing frequency
- ED50 of inhibition of ex vivo [3H]MK-801 binding [6]: 1.8 ± 1.3 mg/kg
- Cmax/Dose [7, 15]: 18.16
- Cmax/Dose [7, 16]: 26.03
- Cmax/Dose [7, 17]: 9.18
- Cmax/Dose ([7]; Control): 7.91
- AUC(0-inf) [7, 15]: 126 ng·h/mL
- AUC(0-t) [7, 15]: 113 ng·h/mL
- Cmax [7, 15]: 77 ng/mL
- Tmax [7, 15]: 0.2 h
- half-life [7, 15]: 5.05 h
- AUC(0-inf) [7, 16]: 143 ng·h/mL
- AUC(0-t) [7, 16]: 134 ng·h/mL
- Cmax [7, 16]: 126 ng/mL
- Tmax [7, 16]: 0.15 h
- half-life [7, 16]: 4.6 h
- AUC(0-inf) [7, 17]: 125 ng·h/mL
- AUC(0-t) [7, 17]: 103 ng·h/mL
- Cmax [7, 17]: 43 ng/mL
- Tmax [7, 17]: 0.25 h
- half-life [7, 17]: 4.33 h
- AUC(0-inf) ([7]; Control): 132 ng·h/mL
- AUC(0-t) ([7]; Control): 120 ng·h/mL
- Cmax ([7]; Control): 34.5 ng/mL
- Tmax ([7]; Control): 0.75 h
- half-life ([7]; Control): 7.18 h
- increase in permeability of memantine ([8]; increase in pH from 5.5 to 9.0): over 100 fold
- increase in permeability of memantine ([8]; increase in pH from 8.0 to 9.0): about 3.8 fold
- Effect on number of coughs evoked by bradykinin aerosols compared to control ([9]; FIG. 4, p<0.01): significantly reduced the number of coughs evoked by bradykinin
- Cumulative coughs, 0.3M bradykinin challenge ([9]; MMT 3 mg/kg i.p. 1 hour pre-bradykinin challenge): 20 ± 5
- Cumulative coughs, 0.3M bradykinin challenge ([9]; MMT 10 mg/kg i.p. 1 hour pre-bradykinin challenge): 1.3±0.8
- Cumulative coughs, 0.3M bradykinin challenge ([9]; MMT 10 mg/kg i.p. 1 hour pre-bradykinin challenge, listed as MMT): 1.3 ± 0.8
- cumulative number of coughs evoked by 0.1-3 mg/mL bradykinin, median ([9]; memantine 10 mg/kg, controls 16 coughs): 0.0 coughs
- ED50 of t-MeHA increase ([10]; acute administration): 0.3 ± 0.1 mg/kg
- increase of tele-methylhistamine (t-MeHA) levels in the brain ([10]; acute administration): 60%
- t-MeHA levels enhanced by ([10]; two days after 5 mg/kg twice daily for 5 days): 50±7%
- density of H3-receptor binding sites increased by [11]: 141±24%
- plasma memantine concentrations at steady state ([12]; conventional memantine dosage forms): 70 to 150 ng/mL
- Total renal clearance ([12]; healthy volunteers): approximately 170 mL/min/1.70 m^2
- bound to plasma proteins ([12]; in vivo): about 45%
- mean volume of distribution ([12]; in vivo): about 10 L/kg
- bioavailability ([12]; oral, conventional memantine): > 100%
- ≧15 Cumulative coughs/total number of guinea pigs ([13]; 0.01 mg/kg po): 2/5
- ≧15 Cumulative coughs/total number of guinea pigs ([13]; 0.1 mg/kg po): 1/5
- Cumulative numbers of cough, median, citric acid 0.01M ([13]; 1 mg/kg intraperitoneally): 0.0
- Cumulative numbers of cough, median, citric acid 0.1M ([13]; 1 mg/kg intraperitoneally): 5.0
- Cumulative numbers of cough, median, citric acid 0.3M ([13]; 1 mg/kg intraperitoneally): 14.0
- ≧15 Cumulative coughs/total number of guinea pigs ([13]; 1 mg/kg po): 2/7
- Cumulative numbers of cough, median, citric acid 0.01M ([13]; 3 mg/kg intraperitoneally): 0.0
- Cumulative numbers of cough, median, citric acid 0.1M ([13]; 3 mg/kg intraperitoneally): 3.0
- Cumulative numbers of cough, median, citric acid 0.3M ([13]; 3 mg/kg intraperitoneally): 24.5
- ≧15 Cumulative coughs/total number of guinea pigs ([13]; 3 mg/kg po): 0/5
- Cumulative numbers of cough, median, citric acid 0.01M ([13]; 10 mg/kg intraperitoneally): 0.0
- Cumulative numbers of cough, median, citric acid 0.1M ([13]; 10 mg/kg intraperitoneally): 0.0
- Cumulative numbers of cough, median, citric acid 0.3M ([13]; 10 mg/kg intraperitoneally): 1.5*
- Effect on cumulative number of coughs evoked by citric acid (0.01-0.3M) compared to controls ([13]; 10 mg/kg intraperitoneally): significantly reduced the cumulative number of coughs; also recorded: markedly reduced the number of cumulative coughs
- ≧15 Cumulative coughs/total number of guinea pigs ([13]; 10 mg/kg po): 0/7
- Cumulative numbers of cough, median, citric acid 0.01M ([13]; 30 mg/kg intraperitoneally): 0.0
- Cumulative numbers of cough, median, citric acid 0.1M ([13]; 30 mg/kg intraperitoneally): 0.0*
- Cumulative numbers of cough, median, citric acid 0.3M ([13]; 30 mg/kg intraperitoneally): 1.5*
- Effect on cumulative number of coughs evoked by citric acid (0.01-0.3M) compared to controls ([13]; 30 mg/kg intraperitoneally): significantly reduced the cumulative number of coughs; also recorded: similarly reduced cough responses
- ≧15 Cumulative coughs/total number of guinea pigs ([13]; 30 mg/kg po): 0/4
- Effect on cumulative coughs evoked by citric acid over vehicle ([13]; 1 and 3 mg/kg): no significant effect
- Cumulative coughs evoked by citric acid, 0.1M Citric Acid ([13]; 0.5 hr pre-challenge): 2 ± 2
- Cumulative coughs evoked by citric acid, 0.3M Citric Acid ([13]; 0.5 hr pre-challenge): 5 ± 3
- Cumulative coughs evoked by citric acid, 0.1M Citric Acid ([13]; 1 hr pre-challenge): 1 ± 1
- Cumulative coughs evoked by citric acid, 0.3M Citric Acid ([13]; 1 hr pre-challenge): 7 ± 3
- Cumulative coughs evoked by citric acid, 0.1M Citric Acid ([13]; 2 hr pre-challenge): 0 ± 0
- Cumulative coughs evoked by citric acid, 0.3M Citric Acid ([13]; 2 hr pre-challenge): 7 ± 4
- Cumulative coughs evoked by citric acid, 0.1M Citric Acid ([13]; 4 hr pre-challenge): 6 ± 5
- Cumulative coughs evoked by citric acid, 0.3M Citric Acid ([13]; 4 hr pre-challenge): 15 ± 6
- Levels of cough, oral compared to parenteral administration ([13]; doses of 1 mg/kg or more (FIG. 8)): substantially reduced levels of cough compared to parenterally administered memantine
- time to the first cough during the citric acid challenge ([13]; memantine 10 mg/kg vs vehicle, p=0.007): shorter for vehicle than memantine 10 mg/kg
- Effect of single agent on citric acid (0.01-0.3M) induced cough ([13]; oral, 60 minutes prior, memantine 3, guaifenesin 100, diphenhydramine 10, benzonatate 30, ambroxol 100 mg/kg): failed to inhibit cough
- Percentage of animals coughing ≧15 times, effect relative to controls ([13]; orally, doses around 0.1-1 mg/kg (FIG. 7)): reduces cough relative to controls
- Cmax/Dose ([14]; MMT 0.4 mg/kg Buccal + 3.3 mg/ml NaOH): 12.9
- Cmax/Dose ([14]; MMT 0.4 mg/kg Buccal, Control (water)): 6.7
- AUC(0-inf) [14, 18]: 184 ng·h/mL
- Cmax [14, 18]: 54 ng/mL
- AUC(0-inf) [14, 19]: 125 ng·h/mL
- AUC(0-t) [14, 19]: 119 ng·h/mL
